System: mice
Type: in vivo
Conditions: oral administration at 5 g/kg weight
From the text: The composition of the present invention is based on action for suppressing the craving for smoking that has been found for the theanine for the first time. The theanine has been known to be a main ingredient of sapidity in tea and used as a food additive for the sapidity. […] There is no limitation in an amount of addition based on the Food Hygiene Law. Further, unlike a conventional nicotine preparation, since there is no dependence, the composition of the present invention can suppress the craving for smoking safely and effectively.

SMILES: CCNC(=O)CC[C@H](N)C(=O)O [theanine, γ-glutamyl ethylamide]
- death in acute toxicity test: no case of death

Reference: patent US7094787B2, “Compositions for regulating desire for smoking” (Taiyo Kagaku Co., Ltd., priority 2000, dated 2006)
